Tested on: bananas
Assay: Example US-5: various levels of 1-MCP
Format: in vivo, Musa
Parameters: SS (sugar spots): scale not given here
Settings: 7 days
Procedure: Bananas were grown, shipped, and ripened as described in Example US-1. All bananas were in T-bags through the ripening cycle. At color stage 3.0 to 4.0, the bananas, still in T-bags, were placed in various airtight containers; in each container, a specified concentration of 1-MCP was released into the air; bananas remained in those containers for 12 hours. After that, half of each treatment group was transferred to MAP bags, and all bananas were placed into post-MCP storage as in US-1. At the end of 7 days, bananas were evaluated for sugar spots (SS), color stage (CS), and firmness (F). Firmness was measured with a Fruit Texture Analyzer (Güss Company, Republic of South Africa) using a probe of 8 mm diameter.

CC1=CC1 [1-MCP, 1-methylcyclopropene]
CS (color stage) (MAP, 1 ppb 1-MCP): 5.2 | F (firmness) (MAP, 1 ppb 1-MCP): 0.584 kg | SS (sugar spots) (MAP, 1 ppb 1-MCP): 1.8 | CS (color stage) (MAP, 5 ppb 1-MCP): 4.8 | F (firmness) (MAP, 5 ppb 1-MCP): 0.602 kg | SS (sugar spots) (MAP, 5 ppb 1-MCP): 0.5 | CS (color stage) (MAP, 10 ppb 1-MCP): 5.4 | F (firmness) (MAP, 10 ppb 1-MCP): 0.599 kg | SS (sugar spots) (MAP, 10 ppb 1-MCP): 1.5 | CS (color stage) (MAP, 25 ppb 1-MCP): 5.6 | F (firmness) (MAP, 25 ppb 1-MCP): 0.603 kg | SS (sugar spots) (MAP, 25 ppb 1-MCP): 0.8 | CS (color stage) (MAP, 50 ppb 1-MCP): 5.5 | F (firmness) (MAP, 50 ppb 1-MCP): 0.593 kg | SS (sugar spots) (MAP, 50 ppb 1-MCP): 1.0 | CS (color stage) (MAP, 100 ppb 1-MCP): 5.2 | F (firmness) (MAP, 100 ppb 1-MCP): 0.581 kg | SS (sugar spots) (MAP, 100 ppb 1-MCP): 1.0 | CS (color stage) (MAP, 200 ppb 1-MCP): 4.9 | F (firmness) (MAP, 200 ppb 1-MCP): 0.592 kg | SS (sugar spots) (MAP, 200 ppb 1-MCP): 0.8 | CS (color stage) (MAP, 1000 ppb 1-MCP): 6.2 | F (firmness) (MAP, 1000 ppb 1-MCP): 0.617 kg | SS (sugar spots) (MAP, 1000 ppb 1-MCP): 1.8 | CS (color stage) (MAP, 5000 ppb 1-MCP): 6.2 | F (firmness) (MAP, 5000 ppb 1-MCP): 0.602 kg | SS (sugar spots) (MAP, 5000 ppb 1-MCP): 1.2 | CS (color stage) (MAP, 50000 ppb 1-MCP): 5.6 | F (firmness) (MAP, 50000 ppb 1-MCP): 0.585 kg | SS (sugar spots) (MAP, 50000 ppb 1-MCP): 2.5 | CS (color stage) (T-bag, 1 ppb 1-MCP): 6.6 | F (firmness) (T-bag, 1 ppb 1-MCP): 0.561 kg | SS (sugar spots) (T-bag, 1 ppb 1-MCP): 2.2 | CS (color stage) (T-bag, 5 ppb 1-MCP): 6.6 | F (firmness) (T-bag, 5 ppb 1-MCP): 0.571 kg | SS (sugar spots) (T-bag, 5 ppb 1-MCP): 2.8 | CS (color stage) (T-bag, 10 ppb 1-MCP): 6.6 | F (firmness) (T-bag, 10 ppb 1-MCP): 0.568 kg | SS (sugar spots) (T-bag, 10 ppb 1-MCP): 2.0 | CS (color stage) (T-bag, 25 ppb 1-MCP): 6.2 | F (firmness) (T-bag, 25 ppb 1-MCP): 0.576 kg | SS (sugar spots) (T-bag, 25 ppb 1-MCP): 2.5 | CS (color stage) (T-bag, 50 ppb 1-MCP): 7.0 | F (firmness) (T-bag, 50 ppb 1-MCP): 0.591 kg | SS (sugar spots) (T-bag, 50 ppb 1-MCP): 2.2 | CS (color stage) (T-bag, 100 ppb 1-MCP): 7.0 | F (firmness) (T-bag, 100 ppb 1-MCP): 0.571 kg | SS (sugar spots) (T-bag, 100 ppb 1-MCP): 2.5 | CS (color stage) (T-bag, 200 ppb 1-MCP): 7.0 | F (firmness) (T-bag, 200 ppb 1-MCP): 0.589 kg | SS (sugar spots) (T-bag, 200 ppb 1-MCP): 3.0 | CS (color stage) (T-bag, 1000 ppb 1-MCP): 7.0 | F (firmness) (T-bag, 1000 ppb 1-MCP): 0.601 kg | SS (sugar spots) (T-bag, 1000 ppb 1-MCP): 3.0 | CS (color stage) (T-bag, 5000 ppb 1-MCP): 6.2 | F (firmness) (T-bag, 5000 ppb 1-MCP): 0.579 kg | SS (sugar spots) (T-bag, 5000 ppb 1-MCP): 3.0 | CS (color stage) (T-bag, 50000 ppb 1-MCP): 6.6 | F (firmness) (T-bag, 50000 ppb 1-MCP): 0.563 kg | SS (sugar spots) (T-bag, 50000 ppb 1-MCP): 2.8

Reference: US9265268B2, “Method of handling bananas” (priority 2009, dated 2016)
